Test results as given in US9486440B2, “Uses of indole-ketones or indolidones as neuro-protective drugs” (UNIVERSITY OF MACAU, priority 2011, dated 2016).
pKi: −log10 of the molar value. “Also recorded” adds a separate entry of the source.

How the values were obtained:
CGNs = assay: MPP+-induced neurotoxicity in CGNs, MTT and LDH assays; assay type: cell-based, rat; details: for MPP+-induced cell death (cell viability, MTT and LDH assays): pre-treatment 2 hours, then 35 μM MPP+ for 24 hours; for cell proliferative or cytotoxic effects of the drug alone: without MPP+, 26 hours, SU4312 1-30 μM, SU5416 30 μM, sunitinib 2 μM; for MPP+-induced neurotoxicity, co-administration: co-administrated with 35 μM MPP+, SU4312 10-20 μM, PTK787/ZK222584 10 μM, MTT at 24 hours
Method: (§1) All animal experiments were conducted according to the ethical guidelines of ICMS, Macau University and the Animal Care Facility, The Hong Kong Polytechnic University. Rat CGNs were prepared from 8-day-old Sprague-Dawley rats (The Animal Care Facility, The Hong Kong Polytechnic University) as described by Li et al., 2005. Briefly, neurons were seeded at a density of 2.7×10^5 cells/ml in basal modified Eagle's medium (Invitrogen) containing 10% fetal bovine serum, 25 mM KCl, 2 mM glutamine, and penicillin (100 units/ml)/streptomycin (100 μg/ml). Cytosine arabinoside (10 μM) was added to the culture medium 24 hour after plating to limit the growth of non-neuronal cells. With the use of this protocol, more than 95% of the cultured cells were granule neurons.
(§2) The percentage of surviving neurons in the presence of SU4312 and/or MPP^+ was estimated by determining the activity of mitochondrial dehydrogenases with 3(4,5-dimethylthiazol-2-yl)-2.5-diphenyltetrazolium bromide (MTT) assay (Li et al., 2007). The assay was performed according to the specifications of the manufacturer (MTT kit I; Roche Applied Science). Briefly, the neurons were cultured in 96-well plates, 10 μl of 5 mg/ml MTT labeling reagent was added to each well containing cells in 100 μl of medium, and the plates were incubated for 4 hours in a humidified incubator at 37° C. After the incubation, 100 μl of the solvating solution (0.01 N HCl in 10% SDS solution) was added to each well for 16-20 hours. Absorbance of the samples was measured at a wavelength of 570 nm with 655 nm as a reference wavelength. Unless otherwise indicated, the extent of MTT conversion in cells exposed to MPP^+ is expressed as a percentage of the control.
Cytotoxicity was determined by measuring the release of lactate dehydrogenase (LDH). Briefly, cells were precipitated by centrifugation at 500 g for 5 min at room temperature, 50 μl of the supernatants was transferred into new wells, and LDH was determined using the in vitro toxicology assay kit (Roche). The absorbance of the samples was measured at a wavelength of 490 nm with 655 nm as a reference wavelength.
as §1, with “Rat” for “All animal experiments were conducted according to the ethical guidelines of ICMS, Macau University and the Animal Care Facility, The Hong Kong Polytechnic University. Rat”, “hours” for “hour”
as §2, with “The” for “The percentage of surviving neurons in the presence of SU4312 and/or MPP^+ was estimated by determining the activity of mitochondrial dehydrogenases with 3(4,5-dimethylthiazol-2-yl)-2.5-diphenyltetrazolium bromide (MTT) assay (Li et al., 2007). The”, “incubated at 37° C.” for “incubated”, “incubator.” for “incubator at 37° C.”, “The absorbance” for “Absorbance”

PC12 cells = assay: MPP+-induced neurotoxicity in PC12 cells, MTT assay; assay type: cell-based; details: for cell proliferative or cytotoxic effects of the drug alone, PC12 cells: alone for 26 hours, 10 μM SU4312, 3 μM PTK787/ZK222584; for toxicity to PC12 cells at higher concentration: data not shown; for MPP+-induced neuronal death in PC12 cells (MTT): pre-treatment 2 hours, then 1 mM MPP+ for 24 hours, SU4312 10 μM, PTK787/ZK222584 3 μM
Method: The human neuroblastoma SH-SY5Y cells were obtained from ATCC. The cells were maintained in supplemented Dulbecco's modified eagle medium (DMEM), 10% fetal bovine serum, 100 U/ml penicillin, and 100 μg/ml streptomycin in a 37° C., 5% CO2 incubator. PC12 pheochromocytoma cells were also obtained from ATCC. The cells were cultured in medium that consisted of DMEM, 10% heat-inactivated horse serum, 5% fetal bovine serum, 100 U/ml penicillin, and 100 μg/ml streptomycin in a 37° C., 5% CO2 incubator. All experiments were carried out 48 hours after the cells were seeded.
as §2

nNOS = nNOS (Homo sapiens, UniProt P29475); assay: In vitro NOS activity assay, nNOS; assay type: biochemical; design: purchased Alexis Biochemicals (Lausen, Switzerland); details: for inhibition of recombinant human nNOS: PTK787/ZK222584 up to 1 mM
Method: In the in vitro NOS activity assay (Li et al., 2007), purified recombinant human nNOS, endothelial NOS (eNOS), and inducible NOS (iNOS) were bought from Alexis Biochemicals (Lausen, Switzerland). NOS activity was determined by monitoring the conversion of L-[3H]arginine to [3H]citrulline following the instructions provided in the kit (Calbiochem, USA). The reaction mixture contained a final volume of 40 μl with 25 mM Tris-Cl at pH 7.4, 3 μM tetrahydrobiopterin, 1 μM FAD, 1 μM FMN, 1 mM NADPH, 0.6 mM CaCl2, 0.1 μM calmodulin, 2.5 μg of pure NOS enzyme, 5 μl L-[3H]arginine (Perkin Elmer, Waltham, Mass., USA), and different concentrations of the tested reagents. The reaction mixture was incubated at 22° C. for 45 min. The reaction was quenched by adding 400 μl of stopping buffer (50 mM HEPES, pH 5.5, and 5 mM EDTA) for nNOS and eNOS reactions or by heating reactive tubes for iNOS. Unreacted L-[3H]arginine was then trapped by 100 μl of equilibrated resin provided in a spin cup followed by centrifugation for 30 s at 13,200 rpm. The filtrate was quantified by liquid scintillation counting.

Cc1cc(C)c(/C=C2\C(=O)Nc3ccccc32)[nH]1 [SU5416, (3Z)-3-[(3,5-dimethyl-1H-pyrrol-2-yl)methylidene]-1,3-dihydro-2H-indol-2-one]
MPP+-induced cell death (cell viability, MTT and LDH assays) (CGNs): prevented 35 μM MPP^+-induced cell death in a concentration-dependent manner
cell proliferative or cytotoxic effects of the drug alone (CGNs): did not produce any cell proliferative or cytotoxic effects

CN(C)c1ccc(C=C2C(=O)Nc3ccccc32)cc1 [SU4312, 3-[4-(dimethylamino)benzylidenyl]indolin-2-one]
cell proliferative or cytotoxic effects of the drug alone, PC12 cells (PC12 cells): did not show cell proliferative or cytotoxic effects
toxicity to PC12 cells at higher concentration (PC12 cells): at higher concentration conferred toxicity
MPP+-induced neuronal death in PC12 cells (MTT) (PC12 cells): prevented MPP^+-induced dopaminergic neuronal death
pKi (nNOS; 10 and 20 μM SU4312, 5 to 40 μM L-[3H]arginine, Lineweaver-Burk, read-out: Ki value of nNOS inhibition): 4.90
mode of nNOS inhibition (nNOS; Lineweaver-Burk plots): inhibited nNOS in a non-competitive manner; also recorded: did not alter Km but increased the appeared 1/Vmax
inhibition of recombinant human nNOS (nNOS): directly and selectively inhibit recombinant human nNOS relative to iNOS
MPP+-induced neurotoxicity, co-administration (CGNs): still had neuroprotective effects
MPP+-induced cell death (cell viability, MTT and LDH assays) (CGNs): prevented MPP^+-induced cell death in a concentration-dependent manner
cell proliferative or cytotoxic effects of the drug alone (CGNs): did not affect cell proliferation or show any cytotoxic effects; also recorded: did not induce any neurotoxicity

Clc1ccc(Nc2nnc(Cc3ccncc3)c3ccccc23)cc1 [PTK787/ZK222584]
cell proliferative or cytotoxic effects of the drug alone, PC12 cells (PC12 cells): did not show cell proliferative or cytotoxic effects
toxicity to PC12 cells at higher concentration (PC12 cells): at higher concentration conferred toxicity
MPP+-induced neuronal death in PC12 cells (MTT) (PC12 cells): at 3 μM failed to block neuronal loss induced by MPP^+
inhibition of recombinant human nNOS (nNOS): did not inhibit any of the isoforms even at 1 mM
MPP+-induced neurotoxicity, co-administration (CGNs): did not show neuroprotective effects
MPP+-induced cell death (cell viability, MTT and LDH assays) (CGNs): at 3-10 μM failed to block neuronal loss in vitro
